Assay results from patent US8940909B2, “Indicator platform” (Biosynth AG, priority 2009, dated 2015).

Key:
enteric bacterial cells = test: MDAB staining of bacterial colonies with indicators I4a and I5a on Tryptic Soy Agar, aerobic and anaerobic; assay type: cell-based; conditions: for colonial morphology, aerobic conditions / colonial morphology, microaerobic (anaerobic) conditions: Salmonella manhattan (b-gal −), TSAYE with 40 mg/100 ml of indicator
Experimental: Tryptic Soy Agar (TSA) with yeast extract (0.6%) was used as the base plating medium. The media were autoclaved at 121° C. for 15 minutes and placed in a 50° C. water bath to cool. Indicators were added to the basal medium at a final concentration of 40 mg/100 ml (from 80 mg/ml stock solutions in DMF). Over night cultures of enteric bacterial cells in Brain Heart Infusion Broth were streaked onto the plates and incubated at 35° C. for 24 hours under aerobic and anaerobic conditions. After incubation, the colonial morphologies on the plates were recorded (Table III).
Weak staining was observed occasionally due to residual oxygen (micro-anaerobic conditions). Under aerobic conditions indigo (IN-stains) generally dominated the effects of MDAB staining. For example indicator system I4a/MDAB stained colonies violet under anaerobic but indigo blue under aerobic conditions.

Escherichia coli = test: IN and IO staining of bacterial colonies under anaerobic conditions; assay type: cell-based; conditions: Nutrient Agar plates, anaerobically incubated with E. coli
Experimental: Nutrient Agar plates containing 150 mg/l of various substrates and 100 mg/l IPTG were inoculated with Escherichia coli. Plates were put in an anaerobic jar (Anaerojar, Oxoid), an AnaeroGen sachet (Oxoid) was added, the jar was closed and incubated for 24 hours at 37° C.
IN staining cannot be used under anaerobic conditions.

Aeromonas hydrophila 292 = test: IO staining of colonies of beta-D-galactosidase positive/negative bacteria (Table IVb); assay type: cell-based; conditions: Aeromonas hydrophila strain 292, b-gal +; 24 h on Nutrient Agar, 150 mg/l indicator, 100 mg/l IPTG; as to G: Growth of colonies: key: −: absent; +/−: weak; +: strong; ++: very strong
Citrobacter freundii 181 = test: as above; assay type: cell-based; conditions: Citrobacter freundii strain 181, b-gal +; 24 h on Nutrient Agar, 150 mg/l indicator, 100 mg/l IPTG; as to C: Color of colonies: key: −: absent; +/−: weak; +: strong; ++: very strong; as to G: Growth of colonies: key: −: absent; +/−: weak; +: strong; ++: very strong
[1] = test system: Enterobacter aerogenes 242; test: as above; assay type: cell-based; conditions: Enterobacter aerogenes strain 242, b-gal +; 24 h on Nutrient Agar, 150 mg/l indicator, 100 mg/l IPTG; as to C: Color of colonies: key: −: absent; +/−: weak; +: strong; ++: very strong; as to G: Growth of colonies: key: −: absent; +/−: weak; +: strong; ++: very strong
Enterobacter cloacae 245 = test: as above; assay type: cell-based; conditions: Enterobacter cloacae strain 245, b-gal +; 24 h on Nutrient Agar, 150 mg/l indicator, 100 mg/l IPTG; as to C: Color of colonies: key: −: absent; +/−: weak; +: strong; ++: very strong; as to G: Growth of colonies: key: −: absent; +/−: weak; +: strong; ++: very strong
[2] = test system: Escherichia coli (O157:H7) 60; test: as above; assay type: cell-based; conditions: Escherichia coli (O157:H7) strain 60, b-gal +; 24 h on Nutrient Agar, 150 mg/l indicator, 100 mg/l IPTG
Escherichia coli 61 = test: as above; assay type: cell-based; conditions: Escherichia coli strain 61, b-gal +; 24 h on Nutrient Agar, 150 mg/l indicator, 100 mg/l IPTG; as to C: Color of colonies: key: −: absent; +/−: weak; +: strong; ++: very strong; as to G: Growth of colonies: key: −: absent; +/−: weak; +: strong; ++: very strong
Escherichia coli 270 = test: as above; assay type: cell-based; conditions: Escherichia coli strain 270, b-gal +; 24 h on Nutrient Agar, 150 mg/l indicator, 100 mg/l IPTG; as to C: Color of colonies: key: −: absent; +/−: weak; +: strong; ++: very strong; as to G: Growth of colonies: key: −: absent; +/−: weak; +: strong; ++: very strong
[3] = test system: Klebsiella pneumoniae 164; test: as above; assay type: cell-based; conditions: Klebsiella pneumoniae strain 164, b-gal +; 24 h on Nutrient Agar, 150 mg/l indicator, 100 mg/l IPTG; as to C: Color of colonies: key: −: absent; +/−: weak; +: strong; ++: very strong; as to G: Growth of colonies: key: −: absent; +/−: weak; +: strong; ++: very strong
Serratia marcescens 40 = test: as above; assay type: cell-based; conditions: Serratia marcescens strain 40, b-gal +; 24 h on Nutrient Agar, 150 mg/l indicator, 100 mg/l IPTG; as to G: Growth of colonies: key: −: absent; +/−: weak; +: strong; ++: very strong
[4] = test system: Staphylococcus intermedius 31; test: as above; assay type: cell-based; conditions: Staphylococcus intermedius strain 31, b-gal +; 24 h on Nutrient Agar, 150 mg/l indicator, 100 mg/l IPTG
[5] = test system: Staphylococcus saprophyticus 273; test: as above; assay type: cell-based; conditions: Staphylococcus saprophyticus strain 273, b-gal +; 24 h on Nutrient Agar, 150 mg/l indicator, 100 mg/l IPTG; as to G: Growth of colonies: key: −: absent; +/−: weak; +: strong; ++: very strong
Salmonella bongori 81 = test: as above; assay type: cell-based; conditions: Salmonella bongori strain 81, b-gal +; 24 h on Nutrient Agar, 150 mg/l indicator, 100 mg/l IPTG; as to C: Color of colonies: key: −: absent; +/−: weak/variable; +: strong; as to G: Growth of colonies: key: −: absent; +/−: weak; +: strong; ++: very strong
Salmonella illa 73 = test: as above; assay type: cell-based; conditions: Salmonella illa strain 73, b-gal +; 24 h on Nutrient Agar, 150 mg/l indicator, 100 mg/l IPTG; also: key: −: absent; +/−: weak; +: strong; ++: very strong
[6] = test system: Shigella dysenteriae Serovar 1 131; test: as above; assay type: cell-based; conditions: Shigella dysenteriae Serovar 1 strain 131, b-gal +/−; 24 h on Nutrient Agar, 150 mg/l indicator, 100 mg/l IPTG
Shigella sonnei 133 = test: as above; assay type: cell-based; conditions: Shigella sonnei strain 133, b-gal +/−; 24 h on Nutrient Agar, 150 mg/l indicator, 100 mg/l IPTG; as to C: Color of colonies: key: −: absent; +/−: weak; +: strong; ++: very strong; as to G: Growth of colonies: key: −: absent; +/−: weak; +: strong; ++: very strong
[7] = test system: Yersinia enterocolitica 175; test: as above; assay type: cell-based; conditions: Yersinia enterocolitica strain 175, b-gal +/−; 24 h on Nutrient Agar, 150 mg/l indicator, 100 mg/l IPTG; as to G: Growth of colonies: key: −: absent; +/−: weak; +: strong; ++: very strong
[8] = test system: Salmonella enteritidis 43; test: as above; assay type: cell-based; conditions: Salmonella enteritidis strain 43, b-gal −; 24 h on Nutrient Agar, 150 mg/l indicator, 100 mg/l IPTG; also: key: −: absent; +/−: weak; +: strong; ++: very strong
Bacillus subtilis 65 = test: as above; assay type: cell-based; conditions: Bacillus subtilis strain 65, b-gal −; 24 h on Nutrient Agar, 150 mg/l indicator, 100 mg/l IPTG; as to C: Color of colonies: key: −: absent; +/−: weak; +: strong; ++: very strong; as to F: Fluorescence of colonies: key: −: absent; +/−: weak; +: strong; ++: very strong
[9] = test system: Listeria monocytogenes (4b) 290; test: as above; assay type: cell-based; conditions: Listeria monocytogenes (4b) strain 290, b-gal −; 24 h on Nutrient Agar, 150 mg/l indicator, 100 mg/l IPTG; as to C: Color of colonies: key: −: absent; +/−: weak; +: strong; ++: very strong; as to F: Fluorescence of colonies: key: −: absent; +/−: weak; +: strong; ++: very strong
[10] = test system: Pseudomonas aeruginosa 168; test: as above; assay type: cell-based; conditions: Pseudomonas aeruginosa strain 168, b-gal −, 24 h on Nutrient Agar, 150 mg/l indicator, 100 mg/l IPTG; as to C: Color of colonies: key: −: absent; +/−: weak; +: strong; ++: very strong; as to G: Growth of colonies: key: −: absent; +/−: weak; +: strong; ++: very strong
Shigella boydii 135 = test: as above; assay type: cell-based; conditions: Shigella boydii strain 135, b-gal −; 24 h on Nutrient Agar, 150 mg/l indicator, 100 mg/l IPTG; also: key: −: absent; +/−: weak; +: strong; ++: very strong
Staphylococcus aureus 2 = test: as above; assay type: cell-based; conditions: Staphylococcus aureus strain 2, b-gal −, 24 h on Nutrient Agar, 150 mg/l indicator, 100 mg/l IPTG; as to F: Fluorescence of colonies: key: −: absent; +/−: weak; +: strong; ++: very strong
[11] = test system: Streptococcus agalactiae 195; test: as above; assay type: cell-based; conditions: Streptococcus agalactiae strain 195, b-gal −; 24 h on Nutrient Agar, 150 mg/l indicator, 100 mg/l IPTG; as to C: Color of colonies: key: −: absent; +/−: weak; +: strong; ++: very strong; as to F: Fluorescence of colonies: key: −: absent; +/−: weak; +: strong; ++: very strong
[12] = Reaction of MDAB with active signalogens (aldol donor properties); conditions: for Efficiency as aldol donor with MDAB: compared with 6-chloro-1H-indol-3-ol (aS3); for Aldol product / color formed with MDAB: presence of MDAB, absence of oxygen

Compound: 5-Bromo-6-chloro-1H-indol-3-yl-beta-D-galactopyranoside [Indicator I5a]
- colonial morphology, aerobic conditions (enteric bacterial cells; aR MDAB, equivalents 1:1): Cream colored colonies
- colonial morphology, microaerobic (anaerobic) conditions (enteric bacterial cells; aR MDAB, equivalents 1:1): Cream colored colonies
- colonial morphology, aerobic conditions (enteric bacterial cells; no aR): Cream colored colonies
- colonial morphology, microaerobic (anaerobic) conditions (enteric bacterial cells; no aR): Cream colored colonies

Compound: CN(C)c1ccc(C=O)cc1 [DAB, 4-(N,N-Dimethyl)aminobenzaldehyde]
- Formation of BI-stains when used to replace MDAB (enteric bacterial cells; all conditions tested): did not produce any BI-stains

Compound: Cn1cccc1C(=O)c1ccccc1-n1cc(O[C@@H]2O[C@H](CO)[C@H](O)[C@H](O)[C@H]2O)c2ccc(Cl)cc21 [Indicator I31a, 6-Chloro-1-[2-(N-methylpyrrole-2-carbonyl)phenyl]-1H-indol-3-yl-beta-D-galactopyranoside]
- C: Color of colonies (Escherichia coli): o-r
- D: Diffusion around colonies (Escherichia coli): +
- G: Growth of colonies (Escherichia coli): +
- I: Intensity of color (Escherichia coli): +
- L: Localization on colonies (Escherichia coli): +/−
- S: Size of colonies (Escherichia coli): 0.8 mm
- C: Color of colonies (Aeromonas hydrophila 292): +
- F: Fluorescence of colonies (Aeromonas hydrophila 292): −
- G: Growth of colonies (Aeromonas hydrophila 292): +
- C: Color of colonies (Citrobacter freundii 181): +
- F: Fluorescence of colonies (Citrobacter freundii 181): +/−
- G: Growth of colonies (Citrobacter freundii 181): +
- C: Color of colonies [1]: +
- F: Fluorescence of colonies [1]: +/−
- G: Growth of colonies [1]: +
- C: Color of colonies (Enterobacter cloacae 245): +
- F: Fluorescence of colonies (Enterobacter cloacae 245): +/−
- G: Growth of colonies (Enterobacter cloacae 245): +
- C: Color of colonies [2]: +
- F: Fluorescence of colonies [2]: +/−
- G: Growth of colonies [2]: +
- C: Color of colonies (Escherichia coli 61): +
- F: Fluorescence of colonies (Escherichia coli 61): +/−
- G: Growth of colonies (Escherichia coli 61): +
- C: Color of colonies (Escherichia coli 270): +
- F: Fluorescence of colonies (Escherichia coli 270): +/−
- G: Growth of colonies (Escherichia coli 270): +
- C: Color of colonies [3]: +
- F: Fluorescence of colonies [3]: +/−
- G: Growth of colonies [3]: +
- C: Color of colonies (Serratia marcescens 40): +
- F: Fluorescence of colonies (Serratia marcescens 40): −
- G: Growth of colonies (Serratia marcescens 40): +
- C: Color of colonies [4]: +
- F: Fluorescence of colonies [4]: −
- G: Growth of colonies [4]: +
- C: Color of colonies [5]: +
- F: Fluorescence of colonies [5]: −
- G: Growth of colonies [5]: +
- C: Color of colonies (Salmonella bongori 81): +/−
- F: Fluorescence of colonies (Salmonella bongori 81): −
- G: Growth of colonies (Salmonella bongori 81): +
- C: Color of colonies (Salmonella illa 73): −
- F: Fluorescence of colonies (Salmonella illa 73): −
- G: Growth of colonies (Salmonella illa 73): +
- C: Color of colonies [6]: −
- F: Fluorescence of colonies [6]: −
- G: Growth of colonies [6]: +
- C: Color of colonies (Shigella sonnei 133): +
- F: Fluorescence of colonies (Shigella sonnei 133): +/−
- G: Growth of colonies (Shigella sonnei 133): +
- C: Color of colonies [7]: +/−
- F: Fluorescence of colonies [7]: −
- G: Growth of colonies [7]: +
- C: Color of colonies [8]: −
- F: Fluorescence of colonies [8]: −
- G: Growth of colonies [8]: +
- C: Color of colonies (Bacillus subtilis 65): −
- F: Fluorescence of colonies (Bacillus subtilis 65): −
- G: Growth of colonies (Bacillus subtilis 65): +
- C: Color of colonies [9]: −
- F: Fluorescence of colonies [9]: −
- G: Growth of colonies [9]: +/−
- C: Color of colonies [10]: −
- G: Growth of colonies [10]: +
- F: Fluorescence of colonies ([10]; footnote 1: blue autofluorescence): −
- C: Color of colonies (Shigella boydii 135): −
- F: Fluorescence of colonies (Shigella boydii 135): −
- G: Growth of colonies (Shigella boydii 135): +
- F: Fluorescence of colonies (Staphylococcus aureus 2): −
- G: Growth of colonies (Staphylococcus aureus 2): +
- C: Color of colonies (Staphylococcus aureus 2; footnote 2: S. aureus natural color): −
- C: Color of colonies [11]: −
- F: Fluorescence of colonies [11]: −
- G: Growth of colonies [11]: +/−

Compound: COc1cc(N(C)C)ccc1C=O [MDAB, 2-methoxy-4-(N,N-dimethylamino)benzaldehyde]
- Toxic effect on microbial cell growth (enteric bacterial cells; Indox/MDAB staining of microbial colonies): no toxic effect

Compound: Oc1c[nH]c2ccc(Br)c(Cl)c12 [aS4, 5-Bromo-4-chloro-1H-indol-3-ol]
- Efficiency as aldol donor with MDAB [12]: far more effective

Compound: Oc1c[nH]c2cc(Cl)c(Br)cc12 [aS5, 5-Bromo-6-chloro-1H-indol-3-ol]
- Efficiency as aldol donor with MDAB [12]: far more effective

Compound: Nc1c[nH]c2ccccc12 [aS6, 1H-Indol-3-amine]
- Aldol product / color formed with MDAB [12]: Formation of the expected hetero aldol product was not observed
- Aldol product / color formed with MDAB ([12]; listed as 3-aminoindole): failed to yield any aldol product

Compound: Sc1c[nH]c2ccccc12 [aS7, 1H-Indol-3-thiol]
- Aldol product / color formed with MDAB [12]: the expected violet color appeared only under strongly acidic conditions
- Aldol product / color formed with MDAB ([12]; listed as 3-mercaptoindole): did produce the characteristic pink dye (BI7) under strongly acidic conditions
